Literature values in US20210008081A1, “ORAL LIQUID FORMULATIONS OF ABIRATERONE” (LEIUTIS PHARMACEUTICALS PVT, LTD, priority 2018, published 2021).

## CC(=O)O[C@H]1CC[C@@]2(C)C(=CC[C@@H]3[C@@H]2CC[C@]2(C)C(c4cccnc4)=CC[C@@H]32)C1 [Abiraterone acetate]
  Solubility in organic solvents: sparingly soluble to freely soluble
  Solubility in water: practically insoluble
Low solubility low permeability
  Biopharmaceutical classification system class: class IV
Over a wide range of pH
  Solubility in aqueous media: practically insoluble
